Test results: US9605026B2, “Hydrogen-bond surrogate peptides and peptidomimetics for p53 reactivation” (New York University, priority 2013, dated 2017)

What was measured:
UMSCC47 cells [1] = assay: Apoptosis (Annexin V FACS) in UMSCC47 cells; type: cell-based, human; conditions: UMSCC47, 10 μM, 24 hours, vs vehicle
Description: (§1) FIG. 6A is a western blot showing total and acetylated p53 levels. UMSCC47 cells were treated with control (vehicle), CH1iB (10 μM), cis-platinum (10 μM), or CH1iB (10 μM) and cis-platinum (10 μM) for 24 hours. Cell lysates were immunoblotted with anti-p53 or anti-acetylated[K382]-p53 antibody. FIG. 6B is a graph of p53 transcriptional activity. UMSCC47 cells were co-transfected with a p53 Firefly luciferase reporter plasmid and a control Renilla luciferase plasmid. After 24 hours, cells were treated with control (vehicle), CH1iB (10 μM), cis-platinum (10 μM), or CH1iB (10 μM) and cis-platinum (10 μM) for 24 hours. Firefly luciferase activity was normalized to Renilla luciferase activity to control for transfection efficiency. […] UMSCC47 cells were treated with control (vehicle), CH1iB (10 μM), cis-platinum (10 μM), or CH1iB (10 μM) and cis-platinum (10 μM) for 24 hours. mRNA expression was determined using qPCR with validated TaqMan assays. […] FACS was used to quantitate Annexin V-positive apoptotic cells (left panel). […] Tumorsphere formation efficiency was calculated as the number of tumorspheres (≧50 μm in diameter) formed in 7 days divided by the original number of cells seeded. Tumorsphere diameter was measured using NIS-Elements software. […]
Cell proliferation was assessed using the MTT reagent (Roche Molecular Biochemicals, Nutley, N.J.) to detect metabolic active cells. […]

UMSCC47 cells [2] = assay: Tumorsphere formation of UMSCC47 cells; type: cell-based, human; conditions: UMSCC47, 10 μM, 7 days, vs vehicle
Description: as §1

“XELA*RALDQ-NH2 (ELXRALDQ; HBS: 4-pentenoic acid, N-allylalanine; C-terminal amide; CH1iB) [X 4-pentenoic acid, A* N-allylalanine]” was tested, and the enhancement of apoptosis (UMSCC47 cells [1]) was 353% and the “reduction of tumorsphere formation” value (UMSCC47 cells [2]) was 20%.
